According to patent US8940900B2, “2,2,2-tri-substituted acetamide derivatives as glucokinase activators, their process and pharmaceutical application” (Advinus Therapeutics Private Limited, priority 2007, dated 2015):
pEC50: −log10 of the molar value.

Experiments:
primary rat hepatocytes = assay: Glycogen synthesis in primary rat hepatocytes; format: cell-based; details: 3 hours, over DMSO control
Procedure: Primary hepatocytes are collected from male Wistar rats, and tested for viability by trypan blue exclusion. […] The medium is then replaced with fresh MEM (serum-free) containing 2 μCi/ml of D-[U^14C]-Glucose along with 10 μM of the compound in a final DMSO concentration of 0.1%. The final glucose concentration is brought to 10 mM by the addition of D-Glucose (MEM already contains 5 mM glucose). The cells are incubated for 3 hours at 37° C. […] After another round of centrifugation, the supernatant is removed, and the pellet containing the precipitated glycogen is dried overnight. De novo synthesized glycogen is estimated in a scintillation counter (MicroBeta Trilux, Perkin Elmer), and expressed as fold increase over DMSO control.
The protocol for isolation of primary rat hepatocytes is based on the method described in “Methods in Enzymology, Vol. III. pp 34-50. Ed. by S. P. Colowick and N. O. Kaplan.
Compounds described in formula (I), in concentration ranges from 1.0 nM to 500 μM, are tested in glycogen synthesis assay described above.

[1] = target: T1, purified human recombinant GK (Homo sapiens, UniProt P35557); assay: Characterization of partial glucokinase activators: dose dependent effect on % ΔS0.5 of glucokinase for glucose; format: biochemical; details: for pEC50: sigmoidal fit of % ΔS0.5 vs log concentration, read-out: EC50 (measured against % ΔS0.5); for Classification as partial or full GK activator: compared to Ro-28-1675, partial = S0.5 shift between 20% and 90%, full = 90% or more
T1 sequence (P35557 1-465): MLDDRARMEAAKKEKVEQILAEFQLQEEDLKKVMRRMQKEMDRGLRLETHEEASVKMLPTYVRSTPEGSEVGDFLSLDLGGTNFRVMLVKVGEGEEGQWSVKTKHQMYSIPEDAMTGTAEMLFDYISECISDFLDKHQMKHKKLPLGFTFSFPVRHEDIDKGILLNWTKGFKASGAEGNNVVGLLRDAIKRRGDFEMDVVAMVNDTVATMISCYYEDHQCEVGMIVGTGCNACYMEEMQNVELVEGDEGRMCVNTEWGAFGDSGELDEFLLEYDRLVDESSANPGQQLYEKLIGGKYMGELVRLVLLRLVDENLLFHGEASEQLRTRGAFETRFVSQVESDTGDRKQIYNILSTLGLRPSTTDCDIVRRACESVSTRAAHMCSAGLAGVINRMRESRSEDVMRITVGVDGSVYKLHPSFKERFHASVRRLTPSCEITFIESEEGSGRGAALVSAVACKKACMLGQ
Procedure: The ΔS0.5 is then normalized to a percent scale, where the S0.5 in the vehicle control is set to 0% and 0 mM glucose is set to 100%. […] The EC50 of % change in S0.5 is obtained from the sigmoidal fit of the data.
The change in the S0.5 of glucokinase (ΔS0.5) for glucose in the presence of Examples A11, O15 and J1 is calculated by subtracting the S0.5 at each concentration of each Example from the S0.5 in the vehicle control. The ΔS0.5 is then normalized to a percent scale, where the S0.5 in the vehicle control is set to 0% and 0 mM glucose is set to 100%. The % ΔS0.5 is then plotted against the log of the concentration of each Example.
FIG. 2B illustrates such a derived plot, taking S0.5 data from FIG. 2A.
(§1) Glucokinase (GK) activity, in vitro, has been measured using a coupled enzymatic assay (Ref: Hariharan et al (1997) Diabetes 46: 11-16). GK catalyzes the first step, the conversion of glucose to glucose-6-phosphate (G6P) in the presence of ATP. G6P in turn is converted by glucose-6-phosphate dehydrogenase (G6PD) to 6-phosphogluconate, a process that requires NAD, resulting in NADH formation. Since the GK-catalyzed step is the rate-limiting step of this coupled enzymatic process, the rate of accumulation of 6-phosphogluconate and NADH is directly proportional to the rate of glucose phosphorylation by GK. The rate of the GK-catalyzed reaction can therefore be measured by monitoring the increase in NADH absorbance at 340 nm.
(§2) The assay is carried out according to the protocol outlined in Hariharan et al (1997), Diabetes 46: 11-16. Briefly, the test compounds are incubated in a reaction mix containing 25 mM HEPES (pH 7.2), 10 mM MgCl2, 100 mM KCl, 5 mM ATP, 2 mM DTT, 0.5 mM NAD, 1 U/ml Leuconostoc mesenteroides G6PD, 0.3 U/ml of purified human recombinant GK, and different concentrations of glucose. Enzymatic activity is calculated from the initial reaction velocity, measured from the change in NADH absorbance as a function of time.
Compounds of interest are tested in GK assay to monitor dose dependent effect on Glucokinase activation (in kinetic mode), as described above, at various glucose concentration.

[2] = target: T1, purified human recombinant GK; assay: Glucokinase activity, coupled enzymatic assay (NADH absorbance at 340 nm); format: biochemical; details: 5 mM glucose; read-out: EC50 values for GK activation at 5 mM Glucose conc
Description: as §1, §2
Compounds described in formula (I), in concentration ranges from 1.0 nM to 500 μM, are tested in purified human recombinant Glucokinase assay described above.
A compound is considered to be a glucokinase activator if it, in its testable range of concentrations, yields a higher rate of glucose phosphorylation than in its absence.

[3] = animal efficacy models; PSN-GK1 at higher dose; cited from earlier work
[4] = Table 3, vehicle S0.5 = 0%, 0 mM glucose = 100%
[5] = Table 4, partial glucokinase activators

CC(Oc1ccc(F)cc1F)(C(=O)Nc1ccc(C(=O)O)cn1)c1ccc(S(=O)(=O)C2CC2)cc1 (stereo not shown) [Example P5, 6-[2-(4-Cyclopropanesulfonyl-phenyl)-2-(2,4-difluoro-phenoxy)-propionylamino]-nicotinic acid]
Fold increase in glycogen synthesis at 10 μM Compound (primary rat hepatocytes; Table 2, 10 mM glucose): 3.2 fold

CC(C)(Oc1ccc(F)cc1F)C(=O)Nc1ncc(Cl)s1 [Example A11, N-(5-Chloro-thiazol-2-yl)-2-(2,4-difluoro-phenoxy)-2-methyl-propionamide]
pEC50 ([1]; Table 3): 5.90 | Emax [1, 4]: 7% | Classification as partial or full GK activator [1]: partial GK activators | pEC50 [2]: 5.74

CC(C)(Oc1ccc2c(c1)OCO2)C(=O)Nc1nc(CC(=O)Nc2ccc(F)cc2)cs1 [Example J2, 2-(Benzo[1,3]dioxol-5-yloxy)-N-{4-[(4-fluoro-phenylcarbamoyl)-methyl]-thiazol-2-yl}-2-methyl-propionamide]
Emax [1, 5]: 40% | Fold increase in glycogen synthesis at 10 μM Compound (primary rat hepatocytes; Table 5, 10 mM glucose): 1.8 fold

CC(C)(Oc1ccc(F)cc1F)C(=O)Nc1nc(CC(=O)Nc2ccc(F)cc2)cs1 [Example J1, 2-(2,4-Difluoro-phenoxy)-N-{4-[(4-fluoro-phenylcarbamoyl)-methyl]-thiazol-2-yl}-2-methyl-propionamide]
pEC50 ([1]; Table 3): 5.52 | Emax [1, 4]: 55% | Classification as partial or full GK activator [1]: partial GK activators | pEC50 [2]: 5.35

2-(2,4-Difluoro-phenoxy)-2-methyl-N-(1H tetrazol-5-yl)-propionamide [Example A27]
pEC50 [2]: 5.15

CC(Oc1ccc(Cl)cc1)(C(=O)Nc1ncc(Cl)s1)c1ccc(S(C)(=O)=O)cc1 (stereo not shown) [Example O18, 2-(4-Chloro-phenoxy)-N-(5-chloro-thiazol-2-yl)-2-(4-methanesulfonyl-phenyl)-propionamide]
Emax [1, 5]: 60%

CCC(C)(Oc1ccc(F)cc1F)C(=O)Nc1nc(CC(=O)O)cs1 (stereo not shown) [Example H1, {2-[2-(2,4-Difluoro-phenoxy)-2-methyl-butyrylamino]-thiazol-4-yl}-acetic acid]
melting point: 148 to 149 °C

CC(C)(Oc1ccc(F)cc1F)C(=O)Nc1nc(CC(=O)Nc2ccc(F)cc2)c(Cl)s1 [Example J4, N-{5-Chloro-4-[(4-fluoro-phenylcarbamoyl)-methyl]-thiazol-2-yl}-2-(2,4-difluoro-phenoxy)-2-methyl-propionamide]
Emax [1, 5]: 50%

CC(C)(Oc1cccc(C(=O)O)c1)C(=O)Nc1nccs1 [Example K1, 3-[1-Methyl-1-(thiazol-2-ylcarbamoyl)-ethoxy]-benzoic acid]
melting point: 166 to 168 °C

CC(Oc1ccc(F)cc1F)(C(=O)Nc1nccs1)c1ccc(S(C)(=O)=O)cc1 (stereo not shown) [Example O1, 2-(2,4-Difluoro-phenoxy)-2-(4-methanesulfonyl-phenyl)-N-thiazol-2-yl-propionamide]
melting point: 89 to 90 °C

CC(Oc1ccc(F)cc1F)(C(=O)Nc1nc(CC(=O)O)c(Cl)s1)c1ccc(S(C)(=O)=O)cc1 (stereo not shown) [Example P1, {5-Chloro-2-[2-(2,4-difluoro-phenoxy)-2-(4-methanesulfonyl-phenyl)-propionylamino]-thiazol-4-yl}-acetic acid]
melting point: 109 to 111 °C | pEC50 [2]: 5.15

CS(=O)(=O)c1ccc([C@@H](CC2CCCC2)C(=O)Nc2nccs2)cc1 [Ro-28-1675]
Hypoglycemia [3]: cause hypoglycemia in animal efficacy models

CC(Oc1ccc(F)cc1F)(C(=O)Nc1ncc(F)s1)c1ccc(S(C)(=O)=O)cc1 (stereo not shown) [Example O9, 2-(2,4-Difluoro-phenoxy)-N-(5-fluoro-thiazol-2-yl)-2-(4-methanesulfonyl-phenyl)-propionamide]
Fold increase in glycogen synthesis at 10 μM Compound (primary rat hepatocytes; Table 5, 10 mM glucose): 2.8 fold

CC(Oc1ccc(F)cc1F)(C(=O)Nc1ncc(Cl)s1)c1ccc(S(=O)(=O)C2CC2)cc1 (stereo not shown) [Example O15, N-(5-Chloro-thiazol-2-yl)-2-(4-cyclopropanesulfonyl-phenyl)-2-(2,4-difluoro-phenoxy)-propionamide]
pEC50 ([1]; Table 3): 5.92 | Emax [1, 4]: 55% | Classification as partial or full GK activator [1]: partial GK activators | pEC50 [2]: 5.74

CC(C)(Oc1ccc2[nH]ccc2c1)C(=O)Nc1ncc(Cl)s1 [Example A17, N-(5-Chloro-thiazol-2-yl)-2-(1H-indol-5-yloxy)-2-methyl-propionamide]
Fold increase in glycogen synthesis at 10 μM Compound (primary rat hepatocytes; Table 2, 10 mM glucose): 2.9 fold

CC(Oc1ccc(F)cc1F)(C(=O)Nc1ncc(Cl)s1)c1ccc(S(C)(=O)=O)cc1 (stereo not shown) [Example O19, N-(5-Chloro-thiazol-2-yl)-2-(2,4-difluorophenoxy)-2-(4-methanesulfonyl-phenyl)-propionamide]
Emax [1, 5]: 75%

CC(C)(Oc1ccc(F)cc1F)C(=O)Nc1ncc(F)s1 [Example A22, 2-(2,4-Difluoro-phenoxy)-N-(5-fluoro-thiazol-2-yl)-2-methyl-propionamide]
Fold increase in glycogen synthesis at 10 μM Compound (primary rat hepatocytes; Table 5, 10 mM glucose): 2.3 fold

CC(C)(Oc1ccc2c(c1)OCO2)C(=O)Nc1ncc(Cl)s1 [Example A10, 2-(Benzo[1,3]dioxol-5-yloxy)-N-(5-chloro-thiazol-2-yl)-2-methyl-propionamide]
Emax [1, 5]: 75% | pEC50 [2]: 5.66

CC(C)(Oc1ccc2ccccc2c1)C(=O)Nc1nccs1 [Example A5, 2-Methyl-2-(naphthalen-2-yloxy)-N-thiazol-2-yl-propionamide]
melting point: 117 to 118 °C

Cc1cnc(NC(=O)C(C)(Oc2ccc(F)cc2F)c2ccc(S(C)(=O)=O)cc2)s1 (stereo not shown) [Example O16, 2-(2,4-Difluoro-phenoxy)-2-(4-methanesulfonyl-phenyl)-N-(5-methyl-thiazol-2-yl)-propionamide]
pEC50 [2]: 5.27

CCC(C)(Oc1ccc(F)cc1F)C(=O)Nc1ncc(Cl)s1 (stereo not shown) [Example G7, N-(5-Chloro-thiazol-2-yl)-2-(2,4-difluoro-phenoxy)-2-methyl-butyramide]
Emax [1, 5]: 60% | pEC50 [2]: 5.15

CSc1ccc(OC(C)(C(=O)Nc2ncc(Cl)s2)c2ccc(S(C)(=O)=O)cc2)cc1 (stereo not shown) [Example O4, N-(5-Chloro-thiazol-2-yl)-2-(4-methanesulfonyl-phenyl)-2-(4-methylsulfanyl-phenoxy)-propionamide]
melting point: 67 to 68 °C

CC(Oc1ccc(F)c(F)c1)(C(=O)Nc1ncc(Cl)s1)c1ccc(S(C)(=O)=O)cc1 (stereo not shown) [Example O20, N-(5-Chloro-thiazol-2-yl)-2-(3,4-difluoro-phenoxy)-2-(4-methanesulfonyl-phenyl)-propionamide]
Emax [1, 5]: 50%

CC(Oc1ccc(F)cc1F)(C(=O)Nc1ccc(C(=O)O)cn1)c1ccc(S(C)(=O)=O)cc1 (stereo not shown) [Example P4, 6-[2-(2,4-Difluoro-phenoxy)-2-(4-methanesulfonyl-phenyl)-propionylamio]-nicotinic acid]
pEC50 [2]: < 4.85
